Measurements published in paper PMC8038958 (The AAPS Journal, 2021).

Test: Population pharmacokinetic analysis (NONMEM, two-compartment model) of vancomycin serum concentrations from routine TDM
[1] = structural base model without covariates, estimate (RSE %)

CN[C@H](CC(C)C)C(=O)N[C@H]1C(=O)N[C@@H](CC(N)=O)C(=O)N[C@H]2C(=O)N[C@H]3C(=O)N[C@H](C(=O)N[C@H](C(=O)O)c4cc(O)cc(O)c4-c4cc3ccc4O)[C@H](O)c3ccc(c(Cl)c3)Oc3cc2cc(c3O[C@@H]2O[C@H](CO)[C@@H](O)[C@H](O)[C@H]2O[C@H]2C[C@](C)(N)[C@H](O)[C@H](C)O2)Oc2ccc(cc2Cl)[C@H]1O [Vancomycin]
estimated exponent of TBW on V1 and V2 (alternative model with power function instead of linear TBW, not retained): 1.05 | CL (structural base model without covariates, 1892 children 1-18 years, normal weight, overweight, obese, intermittent i.v. infusion, estimate (RSE %)): 2.17 (2) L/h | Q (inter-compartmental clearance between V1 and V2) [1]: 2.24 (4) L/h | V1 (volume of distribution of central compartment) [1]: 5.27 (8) L | V2 (volume of distribution of the peripheral compartment) [1]: 11.9 (8) L
